# Data reported in patent publication US5143906A, “Kedarcidin antitumor chromophore and pharmaceutical composition containing same” (Bristol-Myers Squibb Company, priority 1991, dated 1992).
# Entries after “also recorded” stand apart in the source; their conditions may differ.
# Experiments:
# [1] = tested on: human colon adenocarcinoma HCT116 drug sensitive line; test: In vitro cytotoxicity assay (XTT), HCT116; type: cell-based
# Protocol: (§1) The A2780/DDP cell line is reported to be resistant through enhanced DNA repair mechanisms and elevated GSH/GST levels. Cells were cultured in McCoy's media and 10% fetal bovine serum. When in log phase growth, 4×10^3 cells/well were plated into 96 well microtiter plates and incubated at 37° C. in […] /5% CO2 for 24 hours to allow cell attachment. Compounds were added to the top row of wells, serially diluted (4 fold dilutions) and incubated for an additional 72 hours. The number of viable cells in each well was then quantitated as previously described^2 by adding 0.05 mg/ml final concentration tetrazolium stain (XTT) in the presence of 0.005 mM final concentration phenazine methosulfate. After incubation at room temperature for 3 hours to allow color development, optical density values were measured using a Dynatech MR600 plate reader at […]. IC50 values (drug concentration inhibiting cell growth by 50%) were calculated using linear regression analysis of the optical density readings. Triplicate determinations on separate 96 well plates were done for each drug on each cell line tested.
# [2] = tested on: HCT116/VP35 drug resistant cell line; test: In vitro cytotoxicity assay (XTT), HCT116/VP35; type: cell-based, human
# Protocol: as §1
# [3] = tested on: HCT116/VM46 drug resistant cell line; test: In vitro cytotoxicity assay (XTT), HCT116/VM46; type: cell-based, human
# Protocol: as §1
# [4] = tested on: human ovarian carcinoma A2780 drug sensitive cell line; test: In vitro cytotoxicity assay (XTT), A2780; type: cell-based
# Protocol: as §1
# [5] = tested on: A2780/DDP drug resistant cell line; test: In vitro cytotoxicity assay (XTT), A2780/DDP; type: cell-based, human
# Protocol: as §1
# [6] = tested on: ip implanted P388 leukemia; test: Antitumor activity against ip implanted P388 leukemia; type: in vivo, murine (CDF1 mice)
# Source text: (§2) The P388 tumor was maintained in ascitic form in DBA/2 mice. Experimental tumor models used CDF^1 mice implanted via the intraperitoneal or intravenous route with 1×10^6 leukemia cells on day 0 and dosed with drugs according to the indicated route and schedule. Mice were weighed on day 0 and on day 5 or 6. Weight loss of 20% or greater was an indicator of drug toxicity. Each dose group consisted of 6 mice with 10 mice in the untreated control group. The dosing schedule was Q1DX1;1. Death checks were performed daily and the median life span of each group determined. […] Experiments were terminated on or about day 30.
# [7] = tested on: iv implanted P388 leukemia; test: Antitumor activity against iv implanted P388 leukemia; type: in vivo, murine (CDF1 mice)
# Source text: as §2
# [8] = tested on: sc implanted B16 melanoma; test: Antitumor activity against sc implanted B16 melanoma; type: in vivo, murine (BDF1 mice); conditions: for % T/C / Av. wgt. change / Med. surv. time / No. of mice alive on d 5: iv
# Protocol: The B-16 murine melanoma was maintained as a subcutaneous growing tumor in C57BL/6 mice. Experimental tumor models used BDF^1 mice implanted with a 25 mg tumor fragment implanted subcutaneously via trochar on day 0. Kedarcidin chromophore was administered iv on a Q1DX1;1 schedule. Mice were weighed on day 0 and on day 9.
smiles,measurement,setting,value
COc1c(OC(C)C)cc2cc(O)c(C(=O)N[C@@H]3CC(=O)OC[C@@H](O[C@H]4C[C@H](O)[C@H](N(C)C)[C@H](C)O4)/C4=C/C#C[C@@H]5O[C@]56C(=C[C@H](Oc5ccc3nc5Cl)[C@@H]6O[C@H]3C[C@@](C)(O)[C@@H](O)[C@H](C)O3)C#C4)cc2c1OC [Kedarcidin chromophore],IC50,"[1]; HCT116, 72 h, VP-16 values: mean of triplicate determinations from last 6 experiments",0.4 ng/mL
same,fold more potent than VP-16,[1]; VP-16 sensitive cell line (HCT116),1725 fold
same,cross-resistance with VP-16,[2]; HCT116/VP35,not cross-resistant
same,IC50,"[2]; HCT116/VP35, 72 h, VP-16 values: mean of triplicate determinations from last 6 experiments",0.3 ng/mL
same,cross-resistance with VP-16,[3]; HCT116/VM46,not cross-resistant
same,IC50,"[3]; HCT116/VM46, 72 h, VP-16 values: mean of triplicate determinations from last 6 experiments",0.3 ng/mL
same,IC50,"[4]; A2780, 72 h, VP-16 values: mean of triplicate determinations from last 6 experiments",0.2 ng/mL
same,fold more potent than VP-16,[4]; VP-16 sensitive cell line (A2780),285 fold
same,fold less potent on the resistant cell line compared to the sensitive cell line,"[5]; A2780/DDP vs A2780, 4320 min",about 6.6 fold
same,IC50,"[5]; A2780/DDP, 72 h, VP-16 values: mean of triplicate determinations from last 6 experiments",1.3 ng/mL
same,% T/C,"[6]; Exp. 8305, 0.125 mg/kg/dose",145%
same,Av. wgt. change,"[6]; Exp. 8305, 0.125 mg/kg/dose",0.1 g
same,Med. surv. time,"[6]; Exp. 8305, 0.125 mg/kg/dose",14.5
same,No. of mice alive on d 5,"[6]; Exp. 8305, 0.125 mg/kg/dose",6/6
same,% T/C,"[6]; Exp. 8305, 0.25 mg/kg/dose",150%
same,Av. wgt. change,"[6]; Exp. 8305, 0.25 mg/kg/dose",-0.4 g
same,Med. surv. time,"[6]; Exp. 8305, 0.25 mg/kg/dose",15.0
same,No. of mice alive on d 5,"[6]; Exp. 8305, 0.25 mg/kg/dose",6/6
same,% T/C,"[6]; Exp. 8305, 0.5 mg/kg/dose",165%
same,Av. wgt. change,"[6]; Exp. 8305, 0.5 mg/kg/dose",-0.5 g
same,Med. surv. time,"[6]; Exp. 8305, 0.5 mg/kg/dose",16.5
same,No. of mice alive on d 5,"[6]; Exp. 8305, 0.5 mg/kg/dose",6/6
same,% T/C,"[6]; Exp. 8305, 1 mg/kg/dose",175%
same,Av. wgt. change,"[6]; Exp. 8305, 1 mg/kg/dose",-0.3 g
same,Med. surv. time,"[6]; Exp. 8305, 1 mg/kg/dose",17.5
same,No. of mice alive on d 5,"[6]; Exp. 8305, 1 mg/kg/dose",6/6
same,% T/C,"[6]; Exp. 8305, 2 mg/kg/dose",105%
same,Av. wgt. change,"[6]; Exp. 8305, 2 mg/kg/dose",-2.2 g
same,Med. surv. time,"[6]; Exp. 8305, 2 mg/kg/dose",10.5
same,No. of mice alive on d 5,"[6]; Exp. 8305, 2 mg/kg/dose",6/6
same,% T/C,"[6]; Exp. 8305, 4 mg/kg/dose",90%
same,Av. wgt. change,"[6]; Exp. 8305, 4 mg/kg/dose",-3.6 g
same,Med. surv. time,"[6]; Exp. 8305, 4 mg/kg/dose",9.0
same,No. of mice alive on d 5,"[6]; Exp. 8305, 4 mg/kg/dose",6/6
same,optimal dose,"[6]; Exp. 8305, ip one day after tumor implant",1 mg/kg/inj
same,% T/C,"[6]; Exp. 8328, 0.25 mg/kg/dose",185%
same,Av. wgt. change,"[6]; Exp. 8328, 0.25 mg/kg/dose",-0.4 g
same,Med. surv. time,"[6]; Exp. 8328, 0.25 mg/kg/dose",18.5
same,No. of mice alive on d 5,"[6]; Exp. 8328, 0.25 mg/kg/dose",6/6
same,% T/C,"[6]; Exp. 8328, 0.5 mg/kg/dose",130%
same,Av. wgt. change,"[6]; Exp. 8328, 0.5 mg/kg/dose",-1.1 g
same,Med. surv. time,"[6]; Exp. 8328, 0.5 mg/kg/dose",13.0
same,No. of mice alive on d 5,"[6]; Exp. 8328, 0.5 mg/kg/dose",6/6
same,% T/C,"[6]; Exp. 8328, 1.0 mg/kg/dose",90%
same,Av. wgt. change,"[6]; Exp. 8328, 1.0 mg/kg/dose",-2.3 g
same,Med. surv. time,"[6]; Exp. 8328, 1.0 mg/kg/dose",9.0
same,No. of mice alive on d 5,"[6]; Exp. 8328, 1.0 mg/kg/dose",6/6
same,% T/C,"[6]; Exp. 8328, 2.0 mg/kg/dose",TOX
same,Av. wgt. change,"[6]; Exp. 8328, 2.0 mg/kg/dose",-1.9 g
same,Med. surv. time,"[6]; Exp. 8328, 2.0 mg/kg/dose",TOX
same,No. of mice alive on d 5,"[6]; Exp. 8328, 2.0 mg/kg/dose",2/6
same,optimal dose,"[6]; Exp. 8328, ip, Q1DX1;1",0.25 mg/kg/inj
same,% T/C,"[7]; Exp. 8305, 0.125 mg/kg/dose",186%
same,Av. wgt. change,"[7]; Exp. 8305, 0.125 mg/kg/dose",-0.3 g
same,Med. surv. time,"[7]; Exp. 8305, 0.125 mg/kg/dose",13.0
same,No. of mice alive on d 5,"[7]; Exp. 8305, 0.125 mg/kg/dose",6/6
same,% T/C,"[7]; Exp. 8305, 0.25 mg/kg/dose",214%
same,Av. wgt. change,"[7]; Exp. 8305, 0.25 mg/kg/dose",-0.8 g
same,Med. surv. time,"[7]; Exp. 8305, 0.25 mg/kg/dose",15.0
same,No. of mice alive on d 5,"[7]; Exp. 8305, 0.25 mg/kg/dose",6/6
same,% T/C,"[7]; Exp. 8305, 0.5 mg/kg/dose",107%
same,Av. wgt. change,"[7]; Exp. 8305, 0.5 mg/kg/dose",-2.9 g
same,Med. surv. time,"[7]; Exp. 8305, 0.5 mg/kg/dose",7.5
same,No. of mice alive on d 5,"[7]; Exp. 8305, 0.5 mg/kg/dose",6/6
same,% T/C,"[7]; Exp. 8305, 1 mg/kg/dose",TOX
same,Med. surv. time,"[7]; Exp. 8305, 1 mg/kg/dose",TOX
same,No. of mice alive on d 5,"[7]; Exp. 8305, 1 mg/kg/dose",0/6
same,% T/C,"[7]; Exp. 8305, 2 mg/kg/dose",TOX
same,Med. surv. time,"[7]; Exp. 8305, 2 mg/kg/dose",TOX
same,No. of mice alive on d 5,"[7]; Exp. 8305, 2 mg/kg/dose",0/6
same,% T/C,"[7]; Exp. 8305, 4 mg/kg/dose",TOX
same,Med. surv. time,"[7]; Exp. 8305, 4 mg/kg/dose",TOX
same,No. of mice alive on d 5,"[7]; Exp. 8305, 4 mg/kg/dose",0/6
same,optimal dose,"[7]; Exp. 8305, iv one day after tumor implant",0.25 mg/kg/inj
same,% T/C,"[7]; Exp. 8328, 0.125 mg/kg/dose",186%
same,Av. wgt. change,"[7]; Exp. 8328, 0.125 mg/kg/dose",-2.5 g
same,Med. surv. time,"[7]; Exp. 8328, 0.125 mg/kg/dose",13.0
same,No. of mice alive on d 5,"[7]; Exp. 8328, 0.125 mg/kg/dose",6/6
same,% T/C,"[7]; Exp. 8328, 0.25 mg/kg/dose",100%
same,Av. wgt. change,"[7]; Exp. 8328, 0.25 mg/kg/dose",-2.4 g
same,Med. surv. time,"[7]; Exp. 8328, 0.25 mg/kg/dose",7.0
same,No. of mice alive on d 5,"[7]; Exp. 8328, 0.25 mg/kg/dose",6/6
same,% T/C,"[7]; Exp. 8328, 0.5 mg/kg/dose",TOX
same,Med. surv. time,"[7]; Exp. 8328, 0.5 mg/kg/dose",TOX
same,No. of mice alive on d 5,"[7]; Exp. 8328, 0.5 mg/kg/dose",0/6
same,% T/C,"[7]; Exp. 8328, 1.0 mg/kg/dose",TOX
same,Med. surv. time,"[7]; Exp. 8328, 1.0 mg/kg/dose",TOX
same,No. of mice alive on d 5,"[7]; Exp. 8328, 1.0 mg/kg/dose",0/6
same,optimal dose,"[7]; Exp. 8328, iv, Q1DX1;1",0.125 mg/kg/inj
same,activity by the lifespan criterion,[8]; Exp. 796,active by the lifespan criterion
same,activity by the tumor growth delay criterion,[8]; Exp. 796,Neither kedarcidin chromophore or kedarcidin were active
same,optimum dose,"[8]; Exp. 796, iv one day after tumor implant",0.062 mg/kg/inj
same,% T/C,"[8]; Exp. 796, 0.062 mg/kg/dose",164%
same,Av. wgt. change,"[8]; Exp. 796, 0.062 mg/kg/dose",1.1 g
same,Med. surv. time,"[8]; Exp. 796, 0.062 mg/kg/dose",41.0
same,No. of mice alive on d 5,"[8]; Exp. 796, 0.062 mg/kg/dose",8/8
same,% T/C,"[8]; Exp. 796, 0.125 mg/kg/dose",126%
same,Av. wgt. change,"[8]; Exp. 796, 0.125 mg/kg/dose",1.1 g
same,Med. surv. time,"[8]; Exp. 796, 0.125 mg/kg/dose",31.5
same,No. of mice alive on d 5,"[8]; Exp. 796, 0.125 mg/kg/dose",8/8
same,% T/C,"[8]; Exp. 796, 0.25 mg/kg/dose",TOX
same,Av. wgt. change,"[8]; Exp. 796, 0.25 mg/kg/dose",-1.0 g
same,Med. surv. time,"[8]; Exp. 796, 0.25 mg/kg/dose",TOX
same,No. of mice alive on d 5,"[8]; Exp. 796, 0.25 mg/kg/dose",2/8
same,% T/C,"[8]; Exp. 796, 0.5 mg/kg/dose",TOX
same,Med. surv. time,"[8]; Exp. 796, 0.5 mg/kg/dose",TOX
same,No. of mice alive on d 5,"[8]; Exp. 796, 0.5 mg/kg/dose",0/8
same,activity and potency compared to kedarcidin,"[8]; conclusion, compared directly","as active as, and slightly more potent than, kedarcidin"
same,antitumor activity by lifespan criterion,"[8]; sc implanted B16, conclusion",significant antitumor activity; also recorded: in vivo antitumor activity
